Columns and labels:
Experiment in all cases: relative viability (nuclei count vs DMSO), 5 days (fraction); higher = more cells survive
[1] = compound: CCN(CCO)CCCC(C)Nc1ccnc2cc(Cl)ccc12 [Hydroxychloroquine] + CS(=O)(=O)N1CCN(Cc2cc3nc(-c4cccc5[nH]ncc45)nc(N4CCOCC4)c3s2)CC1 [Pictilisib] (partner 1 µM)
How it was run: (§1)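 Five library-drug doses in √10 steps were combined with a fixed anchor-drug dose, or a single drug was given alone, by pin tool to lung cancer cell lines in 1536-well plates the day after seeding. Nuclei were stained and counted after 5 days. Relative viability is the nuclei count in treated wells over that in vehicle wells, taken as the median of duplicate plates.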

[2] = compound: CCN(CCO)CCCC(C)Nc1ccnc2cc(Cl)ccc12 [Hydroxychloroquine] + C[C@@H](Oc1cc(-c2cnn(C3CCNCC3)c2)cnc1N)c1c(Cl)ccc(F)c1Cl [Crizotinib] (partner 1 µM)
How it was run: as §1

[3] = compound: CCN(CCO)CCCC(C)Nc1ccnc2cc(Cl)ccc12 [Hydroxychloroquine] + Cc1nc(NC(=O)N2CCC[C@H]2C(N)=O)sc1-c1ccnc(C(C)(C)C(F)(F)F)c1 [Alpelisib] (partner 2 µM)
How it was run: as §1

[4] = compound: CCN(CCO)CCCC(C)Nc1ccnc2cc(Cl)ccc12 [Hydroxychloroquine] + CS(=O)(=O)CCNCc1ccc(-c2ccc3ncnc(Nc4ccc(OCc5cccc(F)c5)c(Cl)c4)c3c2)o1 [Lapatinib] (partner 2 µM)
How it was run: as §1

[5] = compound: CCN(CCO)CCCC(C)Nc1ccnc2cc(Cl)ccc12 [Hydroxychloroquine] + CC(C)C[C@H](NC(=O)[C@H](Cc1ccccc1)NC(=O)c1cnccn1)B(O)O [Bortezomib] (partner 0.002 µM)
How it was run: as §1

[6] = compound: CCN(CCO)CCCC(C)Nc1ccnc2cc(Cl)ccc12 [Hydroxychloroquine] + O=C(c1cc(Cc2n[nH]c(=O)c3ccccc23)ccc1F)N1CCN(C(=O)C2CC2)CC1 [Olaparib] (partner 8 µM)
How it was run: as §1

[7] = compound: CCN(CCO)CCCC(C)Nc1ccnc2cc(Cl)ccc12 [Hydroxychloroquine] + CC1(C)CCC(c2ccc(Cl)cc2)=C(CN2CCN(c3ccc(C(=O)NS(=O)(=O)c4ccc(N[C@H](CCN5CCOCC5)CSc5ccccc5)c(S(=O)(=O)C(F)(F)F)c4)cc3)CC2)C1 [Navitoclax] (partner 0.5 µM)
How it was run: as §1

[8] = compound: CCN(CCO)CCCC(C)Nc1ccnc2cc(Cl)ccc12 [Hydroxychloroquine] + COc1cc2c(Oc3ccc(NC(=O)C4(C(=O)Nc5ccc(F)cc5)CC4)cc3F)ccnc2cc1OCCCN1CCOCC1 [Foretinib] (partner 0.25 µM)
How it was run: as §1

[9] = compound: CCN(CCO)CCCC(C)Nc1ccnc2cc(Cl)ccc12 [Hydroxychloroquine] + C[C@]1(O)C[C@@H](c2nc(-c3ccc4ccc(-c5ccccc5)nc4c3)c3c(N)nccn32)C1 [Linsitinib] (partner 1 µM)
How it was run: as §1

Hydroxychloroquine = compound: CCN(CCO)CCCC(C)Nc1ccnc2cc(Cl)ccc12 [Hydroxychloroquine]
How it was run: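 Hoechst staining, done together with fixation and permeabilisation, marked nuclei for 4× imaging and MetaXpress counting. This followed 5 days without medium change after lung cancer cell lines, kept overnight at 37 °C in 1536-well plates, were pinned with five library-drug doses (not always all listed) spaced by √10 on vehicle-anchored plates. Viability is the ratio of treated-well to vehicle-well nuclei, expressed as a median across plates. Plates passed only at control CV below 25% with at least one doubling.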

[10] = compound: CCN(CCO)CCCC(C)Nc1ccnc2cc(Cl)ccc12 [Hydroxychloroquine] + CCNC(=O)c1noc(-c2cc(C(C)C)c(O)cc2O)c1-c1ccc(CN2CCOCC2)cc1 [Luminespib] (partner 0.01 µM)
How it was run: as §1

[11] = compound: CCN(CCO)CCCC(C)Nc1ccnc2cc(Cl)ccc12 [Hydroxychloroquine] + Cc1nc(Nc2ncc(C(=O)Nc3c(C)cccc3Cl)s2)cc(N2CCN(CCO)CC2)n1 [Dasatinib] (partner 0.075 µM)
How it was run: as §1

[12] = compound: CCN(CCO)CCCC(C)Nc1ccnc2cc(Cl)ccc12 [Hydroxychloroquine] + N=C(N)NC(=N)NCCc1ccccc1 [Phenformin] (partner 250 µM)
How it was run: as §1

[13] = compound: CCN(CCO)CCCC(C)Nc1ccnc2cc(Cl)ccc12 [Hydroxychloroquine] + COc1cccc2cc(-c3nc([C@H]4CC[C@H](C(=O)O)CC4)n4ncnc(N)c34)[nH]c12 [OSI-027] (partner 0.5 µM)
How it was run: as §1

[14] = compound: CCN(CCO)CCCC(C)Nc1ccnc2cc(Cl)ccc12 [Hydroxychloroquine] + Cc1cc(Nc2cc(N3CCN(C)CC3)nc(Sc3ccc(NC(=O)C4CC4)cc3)n2)n[nH]1 [Tozasertib] (partner 0.1 µM)
How it was run: as §1

NCI-H1299 gave a relative viability ([1]; first compound 0.5 µM) of 0.805, a relative viability ([1]; first compound 1.581 µM) of 0.682 and a relative viability ([1]; first compound 5 µM) of 0.867. The relative viability ([1]; first compound 15.81 µM) was 0.845, the relative viability ([1]; first compound 50 µM) was 0.746 and the relative viability ([2]; first compound 0.5 µM) was 0.999. It also gave a relative viability ([2]; first compound 1.581 µM) of 0.937, a relative viability ([2]; first compound 5 µM) of 0.91 and a relative viability ([2]; first compound 15.81 µM) of 0.98. The relative viability ([2]; first compound 50 µM) was 0.693, the relative viability ([3]; first compound 0.5 µM) was 0.999 and the relative viability ([3]; first compound 1.581 µM) was 1.04. The relative viability ([3]; first compound 5 µM) was 1.03, the relative viability ([3]; first compound 15.81 µM) was 1.12 and the relative viability ([3]; first compound 50 µM) was 0.996. It also gave a relative viability ([4]; first compound 0.5 µM) of 0.965, a relative viability ([4]; first compound 1.581 µM) of 0.914 and a relative viability ([4]; first compound 5 µM) of 0.903. It also gave a relative viability ([4]; first compound 15.81 µM) of 0.919, a relative viability ([4]; first compound 50 µM) of 0.936 and a relative viability ([5]; first compound 0.5 µM) of 1.01. For the same cell line, the relative viability ([5]; first compound 1.581 µM) was 1.01, the relative viability ([5]; first compound 5 µM) was 1.04 and the relative viability ([5]; first compound 15.81 µM) was 1.03. For the same cell line, the relative viability ([5]; first compound 50 µM) was 0.942, the relative viability ([6]; first compound 0.5 µM) was 0.997 and the relative viability ([6]; first compound 1.581 µM) was 0.974. It also gave a relative viability ([6]; first compound 5 µM) of 0.947, a relative viability ([6]; first compound 15.81 µM) of 1.01 and a relative viability ([6]; first compound 50 µM) of 0.917. For the same cell line, the relative viability ([7]; first compound 0.5 µM) was 1.05, the relative viability ([7]; first compound 1.581 µM) was 1.01 and the relative viability ([7]; first compound 5 µM) was 1.02. For the same cell line, the relative viability ([7]; first compound 15.81 µM) was 1.05, the relative viability ([7]; first compound 50 µM) was 1.04 and the relative viability ([8]; first compound 0.5 µM) was 1.09. The relative viability ([8]; first compound 1.581 µM) was 1.05, the relative viability ([8]; first compound 5 µM) was 1.14 and the relative viability ([8]; first compound 15.81 µM) was 1.12. It also gave a relative viability ([8]; first compound 50 µM) of 1.06, a relative viability ([9]; first compound 0.5 µM) of 1.03 and a relative viability ([9]; first compound 1.581 µM) of 0.633. It also gave a relative viability ([9]; first compound 5 µM) of 1.03, a relative viability ([9]; first compound 15.81 µM) of 0.973 and a relative viability ([9]; first compound 50 µM) of 1.06. For the same cell line, the relative viability (Hydroxychloroquine; 0.5 µM) was 1.02, the relative viability (Hydroxychloroquine; 1.581 µM) was 0.938 and the relative viability (Hydroxychloroquine; 5 µM) was 1.01. For the same cell line, the relative viability (Hydroxychloroquine; 15.81 µM) was 1.02 and the relative viability (Hydroxychloroquine; 50 µM) was 1.02.
In the case of NCI-H1623, the relative viability ([10]; first compound 0.5 µM) is reported as 0.431, the relative viability ([10]; first compound 1.581 µM) is reported as 0.409 and the relative viability ([10]; first compound 5 µM) is reported as 0.496. For the same cell line, the relative viability ([10]; first compound 15.81 µM) was 0.74, the relative viability ([10]; first compound 50 µM) was 0.537 and the relative viability ([11]; first compound 0.5 µM) was 0.554. It also gave a relative viability ([11]; first compound 1.581 µM) of 0.485, a relative viability ([11]; first compound 5 µM) of 0.51 and a relative viability ([11]; first compound 15.81 µM) of 0.547. For the same cell line, the relative viability ([11]; first compound 50 µM) was 0.52, the relative viability ([12]; first compound 0.5 µM) was 0.544 and the relative viability ([12]; first compound 1.581 µM) was 0.565. The relative viability ([12]; first compound 5 µM) was 0.578, the relative viability ([12]; first compound 15.81 µM) was 0.606 and the relative viability ([12]; first compound 50 µM) was 0.588. The relative viability ([13]; first compound 0.5 µM) was 0.411, the relative viability ([13]; first compound 1.581 µM) was 0.406 and the relative viability ([13]; first compound 5 µM) was 0.449. It also gave a relative viability ([13]; first compound 15.81 µM) of 0.418, a relative viability ([13]; first compound 50 µM) of 0.439 and a relative viability ([8]; first compound 0.5 µM) of 0.823. For the same cell line, the relative viability ([8]; first compound 1.581 µM) was 0.842, the relative viability ([8]; first compound 5 µM) was 0.88 and the relative viability ([8]; first compound 15.81 µM) was 0.937. For the same cell line, the relative viability ([8]; first compound 50 µM) was 0.82, the relative viability ([14]; first compound 0.5 µM) was 0.392 and the relative viability ([14]; first compound 1.581 µM) was 0.405. For the same cell line, the relative viability ([14]; first compound 5 µM) was 0.406, the relative viability ([14]; first compound 15.81 µM) was 0.526 and the relative viability ([14]; first compound 50 µM) was 0.488. The relative viability (Hydroxychloroquine; 0.5 µM) was 0.88, the relative viability (Hydroxychloroquine; 1.581 µM) was 0.959 and the relative viability (Hydroxychloroquine; 5 µM) was 0.941. The relative viability (Hydroxychloroquine; 15.81 µM) was 0.943 and the relative viability (Hydroxychloroquine; 50 µM) was 0.992.
